One may read the Kd as the constant that tells how readily two partners part at equilibrium. As a reminder, the Ki is a dissociation constant, usually derived from enzyme kinetics or from competition with a known ligand.

This is an account of results in patent US10472355B2, “Cancer treatment utilizing SP-141 to bind with MDM2 and act as an inhibitor of MDM2 expression” (Texas Tech University System, priority 2014, dated 2019).

Series [1] has as its system MDM2 protein. In words: Western blot of MDM2 expression in breast cancer cells. Type of series: cell-based, human. The conditions noted are these: multiple tested cell lines. As for the experimental part: SP-141 also effects MDM2 expression. […] In the MCF-7 (p53 wt) cells, the wild-type p53 protein level increased, in accordance with an expected inhibition of MDM2. […] SP-141 increases the expression of cleaved PARP and Bax and decreases the expression of Bcl-2 and Cyclin E in a p53-independent manner.
(§1) FIGS. 8-12 are presented toillustrate that SP-141 induces breast cancer cell death. In experiments conducted by the inventors, cells were exposed to various concentrations of SP-141 for 72 hours, using the MTT assay to evaluate the cell viability and IC50 value. FIG. 9 provides a photograph of such exposure for 24 hours using the colony formation assay. FIG. 10A illustrates a chart associated with 48 hours for the apoptosis assay and FIG. 10B illustrates a similar chart associated with 24 hours for the proliferation assay. FIG. 11 illustrates 24 hour for the cell cycle distribution assay. FIG. 12 illustrates a western blot analysis of the expression of MDM2 and proteins related to apoptosis and cell cycle arrest in human breast cancer cells. All these assays were performed in triplicate, and all the experiments were repeated at least three times (mean±s.e.m., n=9 for each data point, two-sided Student's t-test. *Po 0.01).
On the technique in general: Immunoblotting shows a protein as a band on a membrane.

For series [2], the system named is p53 mt MDA-MB-468 cells. In words: Apoptosis assay. Type of series: cell-based, human. The following applies: 1-mM SP-141, 48 hours. How it is done:
as §1

The test system of series [3] is p53 wt MCF-7 cells. In words: Apoptosis assay. The format is cell-based, human. The following applies: 1-mM SP-141, 48 hours. As for the experimental part:
as §1

In series [4] the test system is p53 KO MCF-7 cells. Description: Apoptosis assay. Type of series: cell-based, human. The conditions noted are these: 1-mM SP-141, 48 hours. As for the experimental part: as §1
Series [5] concerns MDM2 protein in MCF-7 and MDA-MB-468 cells. Description: MDM2 protein degradation (cycloheximide chase, western blot). Type of series: cell-based, human. The conditions noted are these: 0.5 mM SP-141 24 hours, then cycloheximide. How it is done: SP-141 can also induce MDM2 protein degradation. Specifically. SP-141 can induce MDM2 inhibition in vitro and in vivo. […] The p53 protein was stabilized in MCF-7 cells, but not in the p53 mt […] cells.
MCF-7 and MDA-MB-468 cells were treated with SP-141 (0.5 mM), and then exposed to cycloheximide (CHX, 15 mg ml 1), an inhibitor of protein synthesis. The graphs in FIG. 20 show the quantification of the western blot data. Cells were treated with SP-141 (0.5 mM) for 24 hours, and then exposed to a proteasome inhibitor, MG 132 (25 mM), for an additional 6 hours. The protein levels of MDM2 were detected with western blot analysis, as illustrated in FIG. 21. Further, cells were transfected with MDM2 and ubiquitin plasmids, followed by treatment with SP-141 for 24 hours. The cells were then exposed to MG132 (25 mM) for an additional 6 hours, and the lysates were subjected to immunoprecipitation with an MDM2 antibody. Cells were transfected with a wild-type MDM2 plasmid or mutant MDM2 plasmid without E3 ligase activity (C464A). After treatment with SP-141 for 24 hours, MDM2 levels were detected with western blot analysis, as illustrated in FIG. 23. Representative images of MDM2 immunofluorescence in control and SP-141 (1 mM)-treated cells are illustrated in FIG. 24. B-actin and DAPI were used as internal references. All the experiments were repeated three times.

In series [6] the test system is MDA-MB-468 xenograft tumors. In words: MDA-MB-468 xenograft tumor model in nude mice. The format is in vivo. The following applies: i.p. 40 mg/kg per day. As for the experimental part:
(§2) As evidence, SP-141 was administered to nude mice bearing MCF-7 and MDA-MB-468 xenograft tumors. SP-141 was administered by intraperitoneal (i.p.) injection at doses of 40 mg/kgn 1 per day for 42 and 30 days, respectively.
(§3) FIGS. 13-16 are presented to illustrate that. SP-141 suppresses breast xenograft tumor growth in vivo. FIGS. 13A and 13B illustrate tumor mass in nude mice bearing MCF-7 and MDA-MB-468, respectively. The xenograft tumors were treated with SP-141, which was administered by i.p. injection at 40 mg/kg 1 per day, 5 days per week for 42 and 30 days, respectively. FIGS. 14A and 14B illustrate the tumors after they were removed at the end of the experiments. The mice were also monitored for changes in body weight as a surrogate marker for toxicity in both the MCF-7 (as shown in FIG. 15A) and MDA-MB-468 (as shown if FIG. 15B) xenograft models. At the termination of the experiments, H&E staining of the paraffin sections of some organs from the mice bearing MCF-7 xenograft tumors was performed. (Mean±s.e.m., n>10 for each data point, two-sided Student's t-test, *P<0.01).

The test system of series [7] is human breast cancer cell lines. Description: Cell cycle distribution assay. The format is cell-based. Further details: dose or concentration left out as unconfirmed. The following applies: 24 hours. As for the experimental part:
(§4) MDA-MB-468 cells are more sensitive to SP-141 treatment at higher concentrations than MCF-7 and MCF-7 p53 KD cells.
as §1

Series [8] addresses GST-MDM2 (Homo sapiens, UniProt Q00987). Description: Biotin-avidin pull-down assay with biotinylated SP-141. Type of series: binding. The following applies: biotin-SP-141 conjugate, avidin beads; purified GST negative control. From the text:
As illustrated in FIGS. 2 and 3.
A western blot analysis is illustrated in FIG. 5. […] Purified GST was used as a negative control. The bound protein was detected using anti-MDM2 and anti-GST antibodies.
The bound protein was detected using anti-MDM2 antibody.

Series [9] addresses T1, MDM2 protein (Homo sapiens, UniProt Q00987). In words: Biacore assay (MDM2 immobilized on CM5 sensor chip). The conditions noted are these: read-out: KD for binding to the MDM2 protein. From the text:
(§5) The reduction is proportional to dose. Thus, SP-141 can occupy the p53-binding site on MDM2 as illustrated by FIG. 6. […] Thus, SP-141 serves as a specific MDM2 inhibitor with a high binding capacity for the MDM2 protein.
(§6) FIG. 7A illustrates a chart illustrating % inhibition. This is illustrative of competitive binding to recombinant human MDM2 proteins using an FP-based binding assay. […] Similarly, FIG. 7B illustrates a chart or responses illustrative of competitive KD values of SP-141 to MDM2 as determined using the Biacore assay. The MDM2 protein was immobilized on a CM5 sensor chip. […] It is noteworthy that all the assays were performed in triplicate, and all the experiments were repeated at least three times.

The target of series [10] is T1, MDM2 protein. In words: FP-based competitive binding assay.
Excerpt: as §5, §6

Series [11] concerns MCF-7 cells (both p53 wt and p53 KD). In words: Proliferation assay. Type of series: cell-based, human. The conditions noted are these: 0.5-mM concentration, 24 hours. As for the experimental part: as §4, §1
Series [12] concerns MDA-MB-231-Luc breast cancer cells. Description: Experimental metastasis assay. Type of series: in vivo, nude mice. The following applies: i.p. 20 mg/kg per day for 2 weeks; days 8 and 15. As for the experimental part: To validate the anti-metastatic effects of SP-141 in vivo, an experimental metastasis assay can be performed. MDA-MB-231-Luc breast cancer cells can be intravenously injected into a tail vein of nulnu mice. The animals are randomly divided into a treatment group and a control group after cell injection. SP-141 can be administered by i.p injection at doses of 20 mg/kg, 1 per day for 2 weeks.
(§7) FIGS. 28-30 are provided to illustrate that SP-141 inhibits cell metastasis in vitro and in vivo. MDA-MB-231 cells were grown to confluence in a six-well plate, illustrated in FIG. 28. A scratch was made at experimental time zero, and then the cells were exposed to various concentrations of SP-141. The wells were imaged at different time points. All the experiments were repeated at least three times. The effects of SP-141 on the expression of EMT-related proteins in MDA-MB-231 cells is shown in the western blot analysis provided in FIG. 29. About 1×10^ 6 MDA-MB-231-Luc cells were intravenously injected into a tail vein of nude mice. SP-141 was administered by i.p. injection at doses of 20 mg kg, 1 per day, 5 days per week for 2 weeks. The luciferase signals in the mice were detected and photographed using an MS in vivo image system on days 1, 8, and 15, as shown in FIG. 30.

Series [13] relates to MDA-MB-231 human breast cancer cells. In words: Wound healing assay (cell migration). The format is cell-based. The conditions noted are these: 0.1 or 0.2 mM SP-141, MDA-MB-231 cells. As for the experimental part: SP-141 inhibits cell migration in vitro and in vivo. A crucial component of tumor cell invasion is cell migration. A wound healing assay can be used to investigate the effect of SP-141 on cancer cell motility, using MDA-MB-231 human breast cancer cells. The cells can be treated with the vehicle, or with 0.1 or 0.2 mM of SP-141, in order to evaluate the cell migration into the wound made in the cell monolayer.
as §7

The test system of series [14] is breast cancer cell lines. Description: Colony formation assay. The format is cell-based, human. The conditions noted are these: 24 hours exposure. As for the experimental part: as §1
Series [15] relates to MCF-7 xenograft tumors. In words: MCF-7 xenograft tumor model in nude mice. The format is in vivo. As for the experimental part:
as §2, §3

T1 sequence (Q00987 whole entry): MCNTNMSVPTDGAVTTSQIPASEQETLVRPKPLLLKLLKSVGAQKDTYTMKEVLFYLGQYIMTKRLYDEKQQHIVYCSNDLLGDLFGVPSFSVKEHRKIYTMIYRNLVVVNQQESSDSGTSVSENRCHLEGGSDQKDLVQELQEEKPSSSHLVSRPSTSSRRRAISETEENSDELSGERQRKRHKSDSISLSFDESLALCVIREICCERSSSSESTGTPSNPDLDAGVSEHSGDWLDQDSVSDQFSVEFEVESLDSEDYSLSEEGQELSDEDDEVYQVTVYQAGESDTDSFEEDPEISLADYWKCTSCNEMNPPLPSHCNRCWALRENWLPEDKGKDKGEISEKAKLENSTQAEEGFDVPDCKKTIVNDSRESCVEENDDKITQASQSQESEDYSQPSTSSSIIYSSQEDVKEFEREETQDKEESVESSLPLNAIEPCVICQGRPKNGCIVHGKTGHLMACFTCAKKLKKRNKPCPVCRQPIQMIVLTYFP
Chain of GST-MDM2 (Q00987 whole entry): as above

Consider `COc1ccc2[nH]c3c(-c4cccc5ccccc45)nccc3c2c1` [SP-141, 6-methoxy-1-(naphthalen-1-yl)-9 H-pyrido[3,4-b]indole], for which the MDM2 protein levels entry in series [1] is on record as “decrease in a concentration-dependent manner”. The figures for the “Increase of apoptotic index” value in [2], in series [3] and in series [4] were 11 fold, 14 fold and 7 fold, respectively. In series [5], the “Degradation rate of the MDM2 protein” value is “increased the degradation rate of the MDM2 protein”. Moreover, the “Host toxicity monitored by changes in body weight” value in series [6] (MDA-MB-468 model, 30 days) is listed as “no significant host toxicity”; in [15] (MCF-7 model, i.p. 40 mg/kg per day, 42 days), “no significant host toxicity”. The “Inhibition of xenograft tumor growth” value in series [6] (MDA-MB-468 xenograft, day 30) was determined as 80%; in series [15] (MCF-7 xenograft, i.p. 40 mg/kg per day, day 42), 82%. The “Effect on cell cycle” value in [7] is on record as “induces cell cycle arrest in the G2 phase”. The “Binding to MDM2 versus GST (pull-down)” value in series [8] is on record as “binds to MDM2, but not GST”. For the same compound, the equilibrium dissociation constant (Kd) in [9] was found to be 43 nM. The affinity in series [10], expressed as Ki, was 28 ± 6 nM. Besides, in series [11], the “Effect on cell proliferation” value is on record as “significant decrease in proliferation”. Further, the “Effect on metastasis (luciferase signals in lung tissues)” value in series [12] is recorded as “decreases the metastasis of breast cancer cells”. Moreover, in [13], the “Effect on cell migration into the wound” value was “significantly decreased the cell migration”. For the same compound, the “Effect on cancer cell colony formation” value in series [14] is recorded as “inhibit cancer cell colony formation in a concentration-dependent manner”. Besides, in series [15] (mice bearing MCF-7 xenograft tumors, 40 mg/kg per day), the “Organ abnormalities at necropsy / histological examination” value is reported as “no gross organ (liver, lung, kidney, spleen, heart or brain) abnormalities”.
